Where only a bound is given, the exact number is not on record here.

This test has as its system Nrf2. Briefly: Evaluation of Nrf2 activation ability (Nrf2d-LacZ / Keap1 HEK293 reporter, Beta-Glo luminescence). Format: cell-based, human. The protocol: HEK293 cells constantly expressing Nrf2d-LacZ (human Nrf2 degron region fused to LacZ; Hirotsu et al, Genes to Cell, Vol. 16, pp. 406-415 (2011)) and human Keap1 were seeded 7,000 cells/27 μl/well on 384-well plates (Corning 384 Well Flat Clear Bottom White Polystyrene TC-Treated Microplates, Cat. #3707), and cultured overnight at 5% CO2, 37° C. in DMEM medium containing 10% FBS, 100 U/mL penicillin and 100 μg/mL streptomycin. 3 μL/well of a 0.1% DMSO solution of the compound of the invention was added to the cells, which were then cultured for 3 hours at 5% CO2, 37° C. Beta-Glo® reagent (Promega, Beta-Glo Assay System, Cat. #E4740) was added 15 μL/well and incubated for 1 hour at room temperature, and luminescence intensity was measured with a luminometer. Using CDDO-Im as a standard, Nrf2 activation ability was calculated given 100% as the luminescence under stimulus with 100 nM CDDO-Im.

Where [1] appears, read: Pharmacological Test Example 1, rated A/B/C.
Where [2] appears, read: rated A/B/C, Pharmacological Test Example 1.

As a reminder, the EC50 is the midpoint of the concentration-response curve. Read a high EC50 as lower potency in that assay. `[O-][s+]1nc(O)cc1-n1cc(-c2ccccc2-c2ccccc2)cn1` (stereo not drawn) [Example 328]: under setting [1], the EC50 fell in the range of 1 to 5 µM. Take `[O-][s+]1nc(O)cc1-n1cc(C2=CCC(F)(F)CC2)cn1` (stereo not drawn) [Example 301]: the EC50 under setting [2] is under 1 µM. For the molecule `COc1ccc(-c2ccc(-c3cnn(-c4cc(O)n[s+]4[O-])c3)cn2)cn1` (stereo not drawn) [Example 444], the EC50 under setting [1] is under 1 µM. Consider `COc1cc2c(cnn2-c2cc(O)n[s+]2[O-])cc1Br` (stereo not drawn) [Example 69], for which the EC50 under setting [2] was in the range of 1 to 5 µM.

Under setting [1], `CN1CCOc2cc(-c3cnn(-c4cc(O)n[s+]4[O-])c3)cnc21` (single isomer, unassigned) [Example 450] had an EC50 of under 1 µM. On to `[O-][s+]1nc(O)cc1-n1ncc2cc(OCc3cccnc3)ccc21` (stereo not drawn) [Example 144], for which the concentration giving a half-maximal response (EC50) under setting [2] fell in the range of 1 to 5 µM. The same measure, in the same setting: in the case of `O=c1[nH]ccc2cc(-c3ccc4c(cnn4-c4cc(O)n[s+]4[O-])c3)ccc12` (stereo not drawn) [Example 64] it was 1 to 5 µM. Under setting [2], `[O-][s+]1nc(O)cc1-n1ncc2cc(-c3cnc(C4CC4)cn3)ccc21` (stereo not drawn) [Example 122] came in with an EC50 of 1 to 5 µM. On the same count and under the same terms, the result for `COc1cc(-c2ccc3cnn(-c4cc(O)n[s+]4[O-])c3c2)ccn1` (stereo not drawn) [Example 110] reads 1 to 5 µM. As to `COc1cc(-c2cnn(-c3cc(O)n[s+]3[O-])c2)cc(OC)c1OC` (stereo not drawn) [Example 390], the EC50 under setting [1] lay within 1 to 5 µM. On to `[O-][s+]1nc(O)cc1-n1ncc2cc(Br)ncc21` (stereo not drawn) [Example 234], for which the EC50 under setting [2] was 1 to 5 µM.

`[O-][s+]1nc(O)cc1-n1cc(C2=Cc3ccccc3CC2)cn1` (stereo not drawn) [Example 381]: the EC50 under setting [1] was under 1 µM. In turn, `[O-][s+]1nc(O)cc1-n1ncc2c3ccccc3ncc21` (stereo not drawn) [Example 239] had an EC50 under setting [2] of under 1 µM. `[O-][s+]1nc(O)cc1-n1ncc2cc(-c3ccc(N4CCCCC4)nc3)ccc21` (stereo not drawn) [Example 90]: the EC50 under setting [2] is under 1 µM. The same measure, in the same setting: in the case of `[O-][s+]1nc(O)cc1-n1ncc2cc(-c3cnc4c(c3)OCCN4CC3CC3)ccc21` (stereo not drawn) [Example 150] it was under 1 µM. Molecule `Cc1cccc(C)c1-c1cccc(COc2ccc(-c3cnn(-c4cc(O)n[s+]4[O-])c3)cc2)c1` (stereo not drawn) [Example 338] gave an EC50 under setting [1] of 1 to 5 µM.

`[O-][s+]1nc(O)cc1-n1cc(-c2ccc(N3CCCC3)nc2)cn1` (stereo not drawn) [Example 322] displayed an EC50 under setting [1] of 1 to 5 µM. Consider `COc1cc(-c2cncc(C)c2)c2cnn(-c3cc(O)n[s+]3[O-])c2c1` (stereo not drawn) [Example 167], for which the EC50 under setting [2] lay in the range of 1 to 5 µM. Same read-out and setting: in the case of `CN1C(=O)COc2nc(-c3ccc4c(cnn4-c4cc(O)n[s+]4[O-])c3)ncc21` (stereo not drawn) [Example 218] it was 1 to 5 µM. As for `COc1cc(-c2cncc(C)c2)cc2c1cnn2-c1cc(O)n[s+]1[O-]` (stereo not drawn) [Example 195], the EC50 under setting [2] fell in the range of 1 to 5 µM. Same read-out and setting: in the case of `[O-][s+]1nc(O)cc1-n1ncc2cc(-c3ccc(N4CCCC4)nc3)ccc21` (stereo not drawn) [Example 87] it was 1 to 5 µM. On to `[O-][s+]1nc(O)cc1-n1cc(-c2cccnc2C(F)(F)F)cn1` (stereo not drawn) [Example 395], for which, under setting [1], the EC50 lay in the range of 1 to 5 µM. Regarding `[O-][s+]1nc(O)cc1-n1cc(-c2ccc(Oc3ccccc3)cc2)cn1` (stereo not drawn) [Example 333], the EC50 under setting [1] was under 1 µM. `[O-][s+]1nc(O)cc1-n1cc(-c2ccc3ccccc3c2)cn1` (stereo not drawn) [Example 340] displayed an EC50 under setting [1] of under 1 µM. Regarding `[O-][s+]1nc(O)cc1-n1cc(-c2ccc(Oc3ccccc3)cc2)cn1` (stereo not drawn) [Example 377], the EC50 under setting [1] was under 1 µM. The same measure, in the same setting: in the case of `[O-][s+]1nc(O)cc1-n1cc(-c2ccc(Oc3ccccc3)cc2)cn1` (stereo not drawn) [Example 378] it was under 1 µM. `[O-][s+]1nc(O)cc1-n1ncc2ccc(-c3ccc(N4CCCC4)nc3)cc21` (stereo not drawn) [Example 106] showed an EC50 under setting [2] of 1 to 5 µM.

`Cc1cc(-c2ccccc2)nn1-c1cc(O)n[s+]1[O-]` (stereo not drawn) [Example 310]: the EC50 under setting [2] is 1 to 5 µM. Same read-out and setting: the result for `COc1ncccc1-c1ccc2c(cnn2-c2cc(O)n[s+]2[O-])c1` (stereo not drawn) [Example 124] reads under 1 µM; that for `[O-][s+]1nc(O)cc1-n1ncc2cc(C3CC3)ccc21` (stereo not drawn) [Example 27], 1 to 5 µM; that for `COc1cc(-c2ccncc2)cc2c1cnn2-c1cc(O)n[s+]1[O-]` (stereo not drawn) [Example 200], 1 to 5 µM.

With `[O-][s+]1nc(O)cc1-n1ncc2cc(-c3cnc4c(c3)OCC3CCCN43)ccc21` (stereo not drawn) [Example 212], under setting [2], the EC50 is under 1 µM.

For the molecule `CN1CCOc2cc(-c3cc4cnn(-c5cc(O)n[s+]5[O-])c4cn3)cnc21` (single isomer, unassigned) [Example 243], the EC50 under setting [2] was under 1 µM. On to `Cc1nc2cc(-c3cnn(-c4cc(O)n[s+]4[O-])c3)ccc2s1` (stereo not drawn) [Example 354], for which, under setting [1], the EC50 was under 1 µM. Regarding `CC(C)(C)OC(=O)N1CCc2c(cnn2-c2cc(O)n[s+]2[O-])C1` (stereo not drawn) [Example 247], the EC50 under setting [2] was 1 to 5 µM. With `[O-][s+]1nc(O)cc1-n1cc(-c2cccc3ncccc23)cn1` (stereo not drawn) [Example 355], the EC50 under setting [1] is 1 to 5 µM. Under setting [2], `[O-][s+]1nc(O)cc1-n1ncc2c(C3=CCC(F)(F)CC3)cccc21` (stereo not drawn) [Example 93] displayed an EC50 of 1 to 5 µM.

Under setting [1], `COc1cccc(-c2cnn(-c3cc(O)n[s+]3[O-])c2)c1` (stereo not drawn) [Example 388] gave an EC50 of under 1 µM.

As for `COc1nc(Cl)ccc1-c1cnn(-c2cc(O)n[s+]2[O-])c1` (stereo not drawn) [Example 435], the EC50 under setting [1] is under 1 µM. Take `CC1(C)CNc2ncc(-c3ccc4c(cnn4-c4cc(O)n[s+]4[O-])c3)cc2O1` (stereo not drawn) [Example 189]: the EC50 under setting [2] is under 1 µM. Consider `O=c1oc2cc(-c3cnn(-c4cc(O)n[s+]4[O-])c3)ccc2n1CC1CC1` (stereo not drawn) [Example 429], for which the EC50 under setting [1] lay within 1 to 5 µM.

Molecule `[O-][s+]1nc(O)cc1-n1ncc2cc(-c3cc4c(cn3)NCCO4)ccc21` (stereo not drawn) [Example 219] displayed an EC50 under setting [2] of under 1 µM. Still for that read-out and setting: the result for `CN1C(=O)COc2cc(-c3ccc4c(cnn4-c4cc(O)n[s+]4[O-])c3)cnc21` (stereo not drawn) [Example 197] reads under 1 µM; that for `[O-][s+]1nc(O)cc1-n1ncc2cc(-c3cncc(N4CCCCC4)c3)ccc21` (stereo not drawn) [Example 153], under 1 µM. As to `[O-][s+]1nc(O)cc1-n1ncc2c1CN(CC1CCCCC1)C2` (single isomer, unassigned) [Example 273], the EC50 under setting [2] is under 1 µM. As to `CC1(C)C(=O)N(c2cnn(-c3cc(O)n[s+]3[O-])c2)c2ccccc21` (stereo not drawn) [Example 420], the EC50 under setting [1] is 1 to 5 µM. Molecule `COc1nn(-c2cc(O)n[s+]2[O-])c2ccc(-c3cnc4c(c3)OCCN4C)cc12` (stereo not drawn) [Example 223] came in with an EC50 under setting [2] of 1 to 5 µM. Same read-out and setting: in the case of `[O-][s+]1nc(O)cc1-n1ccc(-c2cccc(Br)c2)n1` (stereo not drawn) [Example 286] it was under 1 µM. In the case of `[O-][s+]1nc(O)cc1-n1cc(-c2cnc(C(F)(F)F)cn2)cn1` (stereo not drawn) [Example 415], under setting [1], the EC50 lay in the range of 1 to 5 µM.

Molecule `COc1ncc(-c2ccc3c(cnn3-c3cc(O)n[s+]3[O-])c2)cc1Cl` (stereo not drawn) [Example 73] had an EC50 under setting [2] of under 1 µM. Under setting [2], `O=C(c1ccccc1)N1CCC(c2ccc3c(cnn3-c3cc(O)n[s+]3[O-])c2)CC1` (stereo not drawn) [Example 168] displayed an EC50 of 5 to 10 µM. Under setting [2], `COc1cc(-c2ccc(N3CCCC3)nc2)cc2c1cnn2-c1cc(O)n[s+]1[O-]` (stereo not drawn) [Example 193] displayed an EC50 of under 1 µM. For `CN1CCOc2cc(-c3cnn(-c4cc(O)n[s+]4[O-])c3)ccc21` (stereo not drawn) [Example 347], the EC50 under setting [1] is under 1 µM. Under setting [2], `CC(C)(C)OC(=O)N1CC=C(c2cnn(-c3cc(O)n[s+]3[O-])c2)CC1` (stereo not drawn) [Example 304] yielded an EC50 of 1 to 5 µM. Same read-out and setting: the result for `COc1ccc(CN2Cc3cnn(-c4cc(O)n[s+]4[O-])c3C2)cn1` (stereo not drawn) [Example 266] reads 5 to 10 µM; that for `[O-][s+]1nc(O)cc1-n1cc(I)cn1` (stereo not drawn) [Example 287], 1 to 5 µM.

Take `[O-][s+]1nc(O)cc1-n1cc(-c2cccc3cnccc23)cn1` (stereo not drawn) [Example 343]: the EC50 under setting [1] was 1 to 5 µM.

Consider `Cn1cc2c(-c3ccc4c(cnn4-c4cc(O)n[s+]4[O-])c3)cccc2n1` (stereo not drawn) [Example 76], for which the EC50 under setting [2] fell in the range of 1 to 5 µM. The same measure, in the same setting: the result for `[O-][s+]1nc(O)cc1-n1ncc2ccccc21` (stereo not drawn) [Example 1, 5-(indazol-1-yl)-1-oxo-1,2-thiazol-3-ol] reads 1 to 5 µM. The same measure, in the same setting: in the case of `COc1c(Br)ccc2c1cnn2-c1cc(O)n[s+]1[O-]` (stereo not drawn) [Example 207] it was under 1 µM; in that of `[O-][s+]1nc(O)cc1-n1ncc2nc(Cl)ccc21` (stereo not drawn) [Example 227], 1 to 5 µM. The same measure, in the same setting: in the case of `[O-][s+]1nc(O)cc1-n1ncc2c(-c3ccc(N4CCCC4)nc3)cccc21` (stereo not drawn) [Example 107] it was 1 to 5 µM. On to `[O-][s+]1nc(O)cc1-n1ncc2ccc(Cl)cc21` (stereo not drawn) [Example 31], for which the EC50 under setting [2] is 1 to 5 µM.

On to `COc1nc(-c2ccnc(N3CCCC3)c2)ccc1-c1cnn(-c2cc(O)n[s+]2[O-])c1` (stereo not drawn) [Example 454], for which, under setting [1], the concentration for a half-maximal effect (EC50) is under 1 µM. Under setting [1], `[O-][s+]1nc(O)cc1-n1cc(-c2ccc(-c3ccc(N4CCCCC4)nc3)nc2)cn1` (stereo not drawn) [Example 442] yielded an EC50 of under 1 µM. Under setting [2], `O=C(NC1CC1)c1ccc(F)c(-c2ccc3c(cnn3-c3cc(O)n[s+]3[O-])c2)c1` (stereo not drawn) [Example 63] showed an EC50 of 5 to 10 µM. In turn, `[O-][s+]1nc(O)cc1-n1cc(-c2ccc(-c3ccc(N4CCCC4)nc3)nc2)cn1` (stereo not drawn) [Example 441] yielded an EC50 under setting [1] of under 1 µM. Regarding `[O-][s+]1nc(O)cc1-n1ncc2cc(-c3cnc(N4CCOCC4)cn3)ccc21` (stereo not drawn) [Example 142], under setting [2], the EC50 lay within 1 to 5 µM. As to `COc1cc2c(cnn2-c2cc(O)n[s+]2[O-])cc1C1=CCN(C(=O)OC(C)(C)C)CC1` (stereo not drawn) [Example 71], the EC50 under setting [2] was 1 to 5 µM. Take `[O-][s+]1nc(O)cc1-n1ncc2cc(-c3cnc4c(c3)OCCCCN4)ccc21` (stereo not drawn) [Example 206]: the EC50 under setting [2] is under 1 µM.

In the case of `[O-][s+]1nc(O)cc1-n1cc(/C=C/c2ccccc2)cn1` (stereo not drawn) [Example 318], under setting [1], the EC50 lay within 1 to 5 µM.

Turning to `CCOC(=O)C1CC=C(c2c(C)nn(-c3cc(O)n[s+]3[O-])c2C)CC1` (stereo not drawn) [Example 317], under setting [1], the EC50 lay within 1 to 5 µM.

The record behind these values is patent publication US10201531B2, “Indazolyl-oxo-isothiazole compounds” (MOCHIDA PHARMACEUTICAL CO., LTD., priority 2015, dated 2019).
